The nature of data set [1]: pH of purified gabapentin / gabapentin tablets. Format: physicochemical.
The nature of data set [2]: Storage stability: conversion of gabapentin to its corresponding lactam (HPLC vs. standard). The format is physicochemical. The settings on record: gabapentin pure; for conversion of gabapentin to its corresponding lactam: after a year of storage at 25° C. and 60% relative humidity. The protocol: Gabapentin purified according to these procedures contains less than 0.5% lactam as measured by HPLC vs. standard. After a year of storage at 25° C. and 60% relative humidity, the conversion of gabapentin to its corresponding lactam is measured not to exceed 0.2% by weight of gabapentin.

The test system of data set [3] is cardiozole cramp. The conditions noted are these: in animals; U.S. Pat. No. 4,024,175; cited from earlier work.
For data set [4] the following is noted: according to Augart (U.S. Pat. No. 6,054,482); cited from earlier work.
[5] abbreviates: gabapentin pure after crystallization in methanol (Examples 11-16: basic agent added).
[6] abbreviates: gabapentin pure after the reslurry in methanol (Examples 2, 3: basic agent added).

A value given as a limit tells only on which side of the number the result lay.

In data set [1] (setting [5]), `NCC1(CC(=O)O)CCCCC1` [Example 13, 1-(aminomethyl)-1-cyclohexaneacetic acid] gave a pH of 7.28. Further, the “amount of lactam after storage” value in data set [2] (after a year of storage at 25° C. and 50% relative humidity) is “less than 0.5 % by weight”. Also, the “conversion of gabapentin to its corresponding lactam” value (“conversion of gabapentin” below) in data set [2] was ≤ 0.2 % by weight of gabapentin.

As for `NCC1(CC(=O)O)CCCCC1` [gabapentin, 1-(aminomethyl)-1-cyclohexaneacetic acid], the “protective effect against cardiozole cramp” value in data set [3] is reported as “protective effect against cardiozole cramp”.

Take `NCC1(CC(=O)O)CCCCC1` [Example 1, 1-(aminomethyl)-1-cyclohexaneacetic acid]: in data set [1] (setting [6]), the pH is recorded as 6.84-7.04. Also, the “conversion of gabapentin” value in data set [2] is reported as ≤ 0.2 % by weight of gabapentin.

With `NCC1(CC(=O)O)CCCCC1` [Example 16, 1-(aminomethyl)-1-cyclohexaneacetic acid], the pH in data set [1] (setting [5]) came to 7.17.

`NCC1(CC(=O)O)CCCCC1` [Example 12, 1-(aminomethyl)-1-cyclohexaneacetic acid] registered a pH in data set [1] (setting [5]) of 7.08. Also, the “conversion of gabapentin” value in data set [2] is given as ≤ 0.2 % by weight of gabapentin. The “amount of lactam after storage” value in data set [2] (after a year of storage at 55° C. and 50% relative humidity) is given as “less than 0.5 % by weight”.

Regarding `O=C1CC2(CCCCC2)CN1` [lactam], in data set [4], the “toxicity compared with gabapentin” value is “higher toxicity than gabapentin”.

On to `NCC1(CC(=O)O)CCCCC1` [Example 3, 1-(aminomethyl)-1-cyclohexaneacetic acid], for which the pH in data set [1] (setting [6]) came to 6.8. Moreover, in data set [2], the “conversion of gabapentin” value is listed as ≤ 0.2 % by weight of gabapentin.

`NCC1(CC(=O)O)CCCCC1` [Example 11, 1-(aminomethyl)-1-cyclohexaneacetic acid] gave a pH in data set [1] (setting [5]) of 7.25. Further, the “conversion of gabapentin” value in data set [2] is listed as ≤ 0.2 % by weight of gabapentin.

`NCC1(CC(=O)O)CCCCC1` [Example 15, 1-(aminomethyl)-1-cyclohexaneacetic acid] gave a pH in data set [1] (setting [5]) of 7.22.

Turning to `NCC1(CC(=O)O)CCCCC1` [Example 4, 1-(aminomethyl)-1-cyclohexaneacetic acid], the “conversion of gabapentin” value in data set [2] was ≤ 0.2 % by weight of gabapentin.

With `NCC1(CC(=O)O)CCCCC1` [Example 14, 1-(aminomethyl)-1-cyclohexaneacetic acid], the pH in data set [1] (setting [5]) was determined as 7.03.

For `NCC1(CC(=O)O)CCCCC1` [Example 2, 1-(aminomethyl)-1-cyclohexaneacetic acid], the pH in data set [1] (setting [6]) was determined as 7.15. Also, the “conversion of gabapentin” value in data set [2] is reported as ≤ 0.2 % by weight of gabapentin.

The record behind these values is patent publication US20040147607A1, “Stable gabapentin having pH within a controlled range” (priority 2000, published 2004).
